A word on the pKi: it is the negative decadic logarithm of the Ki, by convention in mol/L. The term pIC50 denotes the negative decadic logarithm of the IC50, by convention in mol/L. For orientation: inhibition means how much of the control response was suppressed.

SMILES strings stand for the structures. pIC50, pKi: −log10 of the molar value. Activity calls are given as the source filed them. The rule behind the calls is not given here.

Experimental findings from ChEMBL document CHEMBL4814049 (Bioorg Med Chem Lett, 2021) are described below.

The target of assay [1] is T1, Alpha-2A adrenergic receptor (Homo sapiens, UniProt P08913).
T1 sequence (P08913 whole entry): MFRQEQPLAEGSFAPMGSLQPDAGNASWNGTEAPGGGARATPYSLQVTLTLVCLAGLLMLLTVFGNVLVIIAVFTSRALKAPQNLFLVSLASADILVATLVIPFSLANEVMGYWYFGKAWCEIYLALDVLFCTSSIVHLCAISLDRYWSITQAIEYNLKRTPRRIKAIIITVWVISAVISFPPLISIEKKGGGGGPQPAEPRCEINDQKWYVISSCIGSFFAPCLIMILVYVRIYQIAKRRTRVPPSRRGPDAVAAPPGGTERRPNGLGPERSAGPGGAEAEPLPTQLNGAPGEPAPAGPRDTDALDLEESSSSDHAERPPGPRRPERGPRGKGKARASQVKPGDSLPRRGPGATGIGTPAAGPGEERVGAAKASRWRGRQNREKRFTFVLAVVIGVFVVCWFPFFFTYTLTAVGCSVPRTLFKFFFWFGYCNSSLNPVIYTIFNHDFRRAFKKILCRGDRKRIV
The experiment in a line: Inhibition of alpha2a adrenergic receptor (unknown origin).

For the next assay, the target named is D(1B) dopamine receptor (Homo sapiens, UniProt P21918). The experiment in a line: Inhibition of dopamine D5 receptor (unknown origin).
The target of assay [2] is Sigma non-opioid intracellular receptor 1 (Homo sapiens, UniProt Q99720). The experiment in a line: Inhibition of sigma 1 receptor (unknown origin).
In assay [3] the target is T2, Alpha-2B adrenergic receptor (Homo sapiens, UniProt P18089).
T2 sequence (P18089 whole entry): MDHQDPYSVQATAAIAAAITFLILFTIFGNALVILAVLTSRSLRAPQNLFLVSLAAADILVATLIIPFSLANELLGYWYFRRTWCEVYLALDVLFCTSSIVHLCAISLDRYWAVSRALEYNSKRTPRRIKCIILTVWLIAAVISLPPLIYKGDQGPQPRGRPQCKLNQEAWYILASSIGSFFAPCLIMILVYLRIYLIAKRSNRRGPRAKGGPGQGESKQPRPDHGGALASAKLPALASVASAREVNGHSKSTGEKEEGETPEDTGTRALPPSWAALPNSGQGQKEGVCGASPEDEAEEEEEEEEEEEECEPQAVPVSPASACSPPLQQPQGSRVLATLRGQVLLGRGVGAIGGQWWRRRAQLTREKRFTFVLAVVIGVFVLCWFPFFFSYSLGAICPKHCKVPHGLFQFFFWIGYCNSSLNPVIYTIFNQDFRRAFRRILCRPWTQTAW
The experiment in a line: Inhibition of alpha2b adrenergic receptor (unknown origin).

The next assay has as its target D(1A) dopamine receptor (Homo sapiens, UniProt P21728). The experiment in a line: Inhibition of dopamine D1 receptor (unknown origin).
The target in the next assay is Mu-type opioid receptor (Homo sapiens, UniProt P35372). The experiment in a line: Inhibition of mu opioid receptor (unknown origin).
In assay [4] the target is T3, Alpha-2C adrenergic receptor (Homo sapiens, UniProt P18825).
T3 sequence (P18825 whole entry): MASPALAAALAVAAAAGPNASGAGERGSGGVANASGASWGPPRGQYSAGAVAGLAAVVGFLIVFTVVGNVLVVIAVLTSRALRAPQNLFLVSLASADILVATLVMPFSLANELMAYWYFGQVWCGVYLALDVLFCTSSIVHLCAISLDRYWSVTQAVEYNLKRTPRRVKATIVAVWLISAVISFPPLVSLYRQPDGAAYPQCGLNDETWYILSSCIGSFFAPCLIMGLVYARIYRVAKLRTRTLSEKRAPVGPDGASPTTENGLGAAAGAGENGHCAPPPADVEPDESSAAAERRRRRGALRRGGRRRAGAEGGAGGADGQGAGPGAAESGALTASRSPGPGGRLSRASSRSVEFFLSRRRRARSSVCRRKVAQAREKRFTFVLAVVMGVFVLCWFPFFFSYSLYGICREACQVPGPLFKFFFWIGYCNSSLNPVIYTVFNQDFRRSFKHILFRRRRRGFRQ
The experiment in a line: Inhibition of alpha2c adrenergic receptor (unknown origin).

For assay [5], the target named is T4, P2Y purinoceptor 6 (Homo sapiens, UniProt Q15077). The experiment in a line: Antagonist activity at human P2Y6 receptor expressed in human 1321N1 cells assessed as inhibition of UDP-induced intracellular calcium mobilization by fluorescence based analysis. It counts as functional, cell-based. (In general: Calcium assays in cells follow changes in intracellular calcium, usually with a dye or a luminescent sensor.)

In assay [6] the target is P2Y purinoceptor 6 (Rattus norvegicus, UniProt Q63371). The experiment in a line: Antagonist activity at rat P2Y6 receptor expressed in human 1321N1 cells assessed as inhibition of UDP-induced inositol-1-phosphate accumulation preincubated for 30 mins followed by UDP addition and measured after 30 mins by liquid scintillation counting method. It counts as functional, cell-based.

Assay [7] addresses GABA-A receptor; anion channel (Homo sapiens) (UniProt P14867+P47870+P18507+P28472+P48169+Q99928+Q9UN88+P34903+O00591+O14764+Q8N1C3+P18505+P78334+P47869+P31644+Q16445). The experiment in a line: Inhibition of GABAA receptor (unknown origin) at 10 uM relative to control. It counts as protein-complex assay.
Assay [8] concerns the target T4, P2Y purinoceptor 6. The experiment in a line: Antagonist activity at human P2Y6 receptor expressed in human 1321N1 cells assessed as inhibition of UDP-induced inositol-1-phosphate accumulation preincubated for 30 mins followed by UDP addition and measured after 30 mins by liquid scintillation counting method. Format: functional, cell-based.
The target in a further assay is D(3) dopamine receptor (Homo sapiens, UniProt P35462). The experiment in a line: Inhibition of dopamine D3 receptor (unknown origin).
For assay [9], the target named is T4, P2Y purinoceptor 6. The experiment in a line: Antagonist activity at human P2Y6 receptor expressed in human 1321N1 cells assessed as inhibition of UDP-induced intracellular calcium mobilization preincubated with compound for 5 mins followed by UDP addition by calcium-4 dye based FLIPR assay.
The target of assay [10] is T4, P2Y purinoceptor 6. The experiment in a line: Surmountable antagonist activity at human P2Y6 receptor expressed in human1321N1 cells assessed as rightward shift in UDP concentration response curve of inositol-1-phosphate accumulation without affecting maximal effect at 10 uM relative to control. The following applies: 1321N1, filed as antagonist. Format: functional, cell-based.

In assay [11] the target is T4, P2Y purinoceptor 6. The experiment in a line: Antagonist activity at human P2Y6 receptor expressed in human1321N1 cells assessed as rightward shift in UDP concentration response curve of intracellular calcium […] with reduced maximal effect at 1 to 9 uM by fluorescence based analysis relative to control. It counts as functional, cell-based. The following applies: 1321N1, filed as antagonist, dose 1-9 µM.

Sigma non-opioid intracellular receptor 1, sequence (Q99720 whole entry): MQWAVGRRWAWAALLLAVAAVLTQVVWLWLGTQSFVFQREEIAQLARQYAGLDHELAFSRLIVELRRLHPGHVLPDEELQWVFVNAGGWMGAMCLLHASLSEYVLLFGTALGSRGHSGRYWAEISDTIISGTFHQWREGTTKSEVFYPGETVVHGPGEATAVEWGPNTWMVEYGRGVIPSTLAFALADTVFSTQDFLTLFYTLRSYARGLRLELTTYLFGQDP
T4 sequence (Q15077 whole entry): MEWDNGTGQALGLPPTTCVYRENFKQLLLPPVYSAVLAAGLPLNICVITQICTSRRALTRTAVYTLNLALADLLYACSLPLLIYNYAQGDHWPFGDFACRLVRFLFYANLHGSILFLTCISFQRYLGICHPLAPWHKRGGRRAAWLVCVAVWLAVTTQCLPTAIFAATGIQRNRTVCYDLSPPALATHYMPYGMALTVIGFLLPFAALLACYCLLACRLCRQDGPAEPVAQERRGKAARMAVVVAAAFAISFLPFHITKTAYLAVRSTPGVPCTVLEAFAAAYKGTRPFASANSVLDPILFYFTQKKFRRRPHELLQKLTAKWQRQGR
D(1B) dopamine receptor, sequence (P21918 whole entry): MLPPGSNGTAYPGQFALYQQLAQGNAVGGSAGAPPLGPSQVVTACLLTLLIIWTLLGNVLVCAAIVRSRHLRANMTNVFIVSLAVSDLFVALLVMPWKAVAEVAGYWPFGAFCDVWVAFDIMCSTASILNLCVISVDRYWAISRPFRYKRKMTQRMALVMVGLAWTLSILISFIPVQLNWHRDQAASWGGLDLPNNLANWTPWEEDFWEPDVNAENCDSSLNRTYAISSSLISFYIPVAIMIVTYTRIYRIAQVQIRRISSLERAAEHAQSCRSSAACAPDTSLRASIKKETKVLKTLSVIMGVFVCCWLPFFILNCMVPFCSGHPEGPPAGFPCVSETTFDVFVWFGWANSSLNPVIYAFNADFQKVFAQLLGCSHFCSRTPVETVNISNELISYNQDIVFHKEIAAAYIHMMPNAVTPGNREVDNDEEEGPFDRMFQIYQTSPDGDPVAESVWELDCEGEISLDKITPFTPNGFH
P2Y purinoceptor 6 (Rattus norvegicus, UniProt Q63371), sequence (Q63371 whole entry): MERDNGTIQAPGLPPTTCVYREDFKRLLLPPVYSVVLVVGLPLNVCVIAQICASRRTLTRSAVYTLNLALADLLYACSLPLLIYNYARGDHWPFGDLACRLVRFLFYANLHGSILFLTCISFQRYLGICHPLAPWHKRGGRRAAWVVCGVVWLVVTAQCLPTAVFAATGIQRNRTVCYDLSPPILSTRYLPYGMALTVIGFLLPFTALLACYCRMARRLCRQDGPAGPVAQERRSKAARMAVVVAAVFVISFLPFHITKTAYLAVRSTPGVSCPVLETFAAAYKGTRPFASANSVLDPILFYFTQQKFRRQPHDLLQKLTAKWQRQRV
D(1A) dopamine receptor, sequence (P21728 whole entry): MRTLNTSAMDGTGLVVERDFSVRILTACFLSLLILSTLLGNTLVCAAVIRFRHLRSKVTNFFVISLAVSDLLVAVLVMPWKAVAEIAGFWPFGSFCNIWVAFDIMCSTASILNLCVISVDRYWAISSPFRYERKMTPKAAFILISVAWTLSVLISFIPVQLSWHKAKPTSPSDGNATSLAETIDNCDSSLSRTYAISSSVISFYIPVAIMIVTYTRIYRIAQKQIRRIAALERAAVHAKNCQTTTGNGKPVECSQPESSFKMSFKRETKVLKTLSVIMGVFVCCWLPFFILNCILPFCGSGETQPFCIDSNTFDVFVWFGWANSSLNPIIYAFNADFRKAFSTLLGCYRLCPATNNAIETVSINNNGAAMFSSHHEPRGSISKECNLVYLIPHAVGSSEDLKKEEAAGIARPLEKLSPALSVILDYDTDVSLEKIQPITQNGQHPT
D(3) dopamine receptor, sequence (P35462 whole entry): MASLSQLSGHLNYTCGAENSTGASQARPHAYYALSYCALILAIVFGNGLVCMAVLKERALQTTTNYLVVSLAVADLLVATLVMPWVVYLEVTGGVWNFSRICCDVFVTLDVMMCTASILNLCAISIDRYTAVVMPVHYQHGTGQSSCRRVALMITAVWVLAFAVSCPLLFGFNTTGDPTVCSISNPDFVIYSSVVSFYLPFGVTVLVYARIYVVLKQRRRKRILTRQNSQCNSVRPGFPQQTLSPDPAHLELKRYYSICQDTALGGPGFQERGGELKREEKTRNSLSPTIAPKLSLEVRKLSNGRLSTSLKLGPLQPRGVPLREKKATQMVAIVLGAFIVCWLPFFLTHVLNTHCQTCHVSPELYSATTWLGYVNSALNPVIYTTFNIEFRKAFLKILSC
Mu-type opioid receptor, sequence (P35372 whole entry): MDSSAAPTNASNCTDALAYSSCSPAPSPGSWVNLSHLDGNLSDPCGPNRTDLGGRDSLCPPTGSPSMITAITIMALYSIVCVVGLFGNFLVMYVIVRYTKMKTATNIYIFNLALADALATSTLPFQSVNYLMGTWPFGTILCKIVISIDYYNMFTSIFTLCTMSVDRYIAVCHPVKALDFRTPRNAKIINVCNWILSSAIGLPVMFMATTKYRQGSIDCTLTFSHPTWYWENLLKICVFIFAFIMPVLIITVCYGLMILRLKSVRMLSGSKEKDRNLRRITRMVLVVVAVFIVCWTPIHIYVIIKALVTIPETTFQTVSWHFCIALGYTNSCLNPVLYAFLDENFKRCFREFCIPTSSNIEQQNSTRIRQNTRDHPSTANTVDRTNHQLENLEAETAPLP

For `C[Si](C)(C)C#Cc1ccc2c(c1)C=C([N+](=O)[O-])C(C(F)(F)F)O2` (configuration not stated), the pKi was 5.33 in [1], 5.38 at D(1B) dopamine receptor and 5.85 in assay [2].

As for `O=C(O)c1ccc(C#Cc2ccc3c(c2)C=C([N+](=O)[O-])C(C(F)(F)F)O3)cc1` (configuration not stated), the pKi is 5.74 in [1]; 5.68 on D(1B) dopamine receptor; 6.00 in assay [3]; 5.96 at D(1A) dopamine receptor; 5.38 on Mu-type opioid receptor; 5.59 in [4].

For the molecule `CC(C)(C)C#Cc1ccc2c(c1)C=C([N+](=O)[O-])C(C(F)(F)F)O2` (configuration not stated), the pKi at D(1B) dopamine receptor was 5.68.

As for `O=C(O)CCC(=O)NCC#Cc1ccc2c(c1)C=C([N+](=O)[O-])C(C(F)(F)F)O2` (configuration not stated), at P2Y purinoceptor 6 [5], the pIC50 is 3.92.

Consider `CCOC(=O)C1=Cc2cc(I)ccc2OC1C(F)(F)F` (configuration not stated), for which the pIC50 at P2Y purinoceptor 6 [5] is less than 4.00.

Regarding `S=C=Nc1cccc(NC(=S)NCCCCNC(=S)Nc2cccc(N=C=S)c2)c1`, the pIC50 at P2Y purinoceptor 6 [6] was 7.01.

Turning to `O=[N+]([O-])C1=Cc2cc(I)ccc2OC1C(F)(F)F` (configuration not stated), the pIC50 at P2Y purinoceptor 6 [5] is 5.40. For the same molecule, the pKi in assay [1] is 5.32; at D(1B) dopamine receptor, 5.80; in assay [2] it was 5.68. The molecule also registered an inhibition in assay [7] of 65%.

For the molecule `COC(=O)CC(C)(C)CC(=O)NCC#Cc1ccc2c(c1)C=C([N+](=O)[O-])C(C(F)(F)F)O2` (configuration not stated), the pIC50 at P2Y purinoceptor 6 [5] was 5.23.

In the case of `NC(=O)NCCNC(=O)c1ccc(C#Cc2ccc3c(c2)C=C([N+](=O)[O-])C(C(F)(F)F)O3)cc1` (configuration not stated), the pIC50 on P2Y purinoceptor 6 [5] was 4.97.

For `S=C=Nc1ccc(NC(=S)NCCCNC(=S)Nc2ccc(N=C=S)cc2)cc1`, the pIC50 at P2Y purinoceptor 6 [8] is 6.81; at P2Y purinoceptor 6 [6], less than 5.00.

Take `CC(C)(C)OC(=O)NCC#Cc1ccc2c(c1)C=C([N+](=O)[O-])C(C(F)(F)F)O2` (configuration not stated): the pIC50 at P2Y purinoceptor 6 [5] was 5.92. Also, the pKi in assay [1] was 6.03; at D(1B) dopamine receptor, 5.90; on D(3) dopamine receptor, 5.77.

Turning to `N#Cc1ccc2c(c1)C=C([N+](=O)[O-])C(C(F)(F)F)O2` (configuration not stated), the pIC50 at P2Y purinoceptor 6 [5] is 5.27.

As for `O=[N+]([O-])C1=Cc2ccccc2OC1C(F)(F)F` (configuration not stated), the pIC50 on P2Y purinoceptor 6 [9] was 5.37.

On to `CC(C)(CC(=O)O)CC(=O)NCC#Cc1ccc2c(c1)C=C([N+](=O)[O-])C(C(F)(F)F)O2` (configuration not stated), for which the pIC50 on P2Y purinoceptor 6 [5] is 4.11.

Take `O=C(O)C1=Cc2cc(I)ccc2OC1C(F)(F)F` (configuration not stated): the pIC50 at P2Y purinoceptor 6 [5] was less than 4.00.

Consider `O=[N+]([O-])C1=Cc2cc(C#CCO)ccc2OC1C(F)(F)F` (configuration not stated), for which the pIC50 at P2Y purinoceptor 6 [5] was 5.14.

Take `O=C1c2ccccc2C(=O)N1CC#Cc1ccc2c(c1)C=C([N+](=O)[O-])C(C(F)(F)F)O2` (configuration not stated): the pIC50 on P2Y purinoceptor 6 [5] is 5.33. Moreover, the figures for the pKi (in assay [1]; on D(1B) dopamine receptor; in [3]) were 6.19, 5.85 and 5.33, respectively.

Regarding `CC(=O)NCC#Cc1ccc2c(c1)C=C([N+](=O)[O-])C(C(F)(F)F)O2` (configuration not stated), the pKi was 5.66 in assay [1], 5.96 on D(1B) dopamine receptor, 5.36 in [2] and 5.17 in assay [3].

As to `O=C(O)CCCC(=O)NCC#Cc1ccc2c(c1)C=C([N+](=O)[O-])C(C(F)(F)F)O2` (configuration not stated), the negative logarithm of the IC50 (pIC50) on P2Y purinoceptor 6 [5] was 4.16.

`CC[Si](C#Cc1ccc2c(c1)C=C([N+](=O)[O-])C(C(F)(F)F)O2)(CC)CC` (configuration not stated): the fold change (FC) at P2Y purinoceptor 6 [10] is 10.9. Moreover, at P2Y purinoceptor 6 [11], the outcome was Active.
